Assay results from the supplement of paper PMC11208160.

Assay: recombinant barcode read abundance after kanamycin selection (control-corrected) (log10(CPM+1)); higher = more efficient recombination; sequences stand for … in AGTGCAGAGAAAATCGGCCAGTTTTCTCTGCCTGCAGTCCGCATGCCGT…ATTTATGCAGCGGACTGCCTTTCTCCCAAAGTGATAAACCGGACAGTATCATGGACCGGTTTTCCCGGTAATCCGTATTTGCAAGGTTGGTTTCACT; site = the 11-nt target
How it was run: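 In E. coli, a pooled library matched targets to IS621 bridge RNA target-binding loops and was introduced alongside a donor plasmid. Cells went onto chloramphenicol/ampicillin/kanamycin with 0.1 mM IPTG or onto chloramphenicol/ampicillin LB agar as control, in duplicate. Recombination efficiency, from recombinant-junction barcodes as counts per million, is averaged and control-corrected. It is reported as log10(CPM+1).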
For “ACGGGACCTTGGGTTCTAACCTGTTGCAGGT [ACGGGACCTCT_LTGcore_CT_RTGcore_AC] (site ACGGGACCTCT) (LTG core: CT, RTG core: AC)”, the “recombinant barcode read abundance (log10)” value was 0.534. With “GAGTCCTATTGGGTTCTAACCTGTTGCCTAG [GAGTCCTCTAG_LTGcore_AT_RTGcore_CT] (site GAGTCCTCTAG) (LTG core: AT, RTG core: CT)” the “recombinant barcode read abundance (log10)” value was 0.0701. In the case of “TAAGAATGTTGGGTTCTAACCTGTTGCCTAC [TAAGAATCTAG_LTGcore_GT_RTGcore_GT] (site TAAGAATCTAG) (LTG core: GT, RTG core: GT)”, the “recombinant barcode read abundance (log10)” value is reported as 0.128. With “AGTCTTATCTGGGTTCTAACCTGTTGCCAGA [AGTCTTACTTG_LTGcore_TC_RTGcore_TC] (site AGTCTTACTTG) (LTG core: TC, RTG core: TC)” the “recombinant barcode read abundance (log10)” value was 0.0509. With “TTATAAAAATGGGTTCTAACCTGTTGCCTAG [TTATAAACTAG_LTGcore_AA_RTGcore_CT] (site TTATAAACTAG) (LTG core: AA, RTG core: CT)” the “recombinant barcode read abundance (log10)” value was 0.0784. For “GCGGGACCTTGGGTTCTAACCTGTTGCCTGG [GCGGGACCTAG_LTGcore_CT_RTGcore_CC] (site GCGGGACCTAG) (LTG core: CT, RTG core: CC)”, the “recombinant barcode read abundance (log10)” value was 0.0406. With “AAACAGTTTTGGGTTCTAACCTGTTGCCTAG [AAACAGTCTAG_LTGcore_TT_RTGcore_CT] (site AAACAGTCTAG) (LTG core: TT, RTG core: CT)” the “recombinant barcode read abundance (log10)” value was 0.109. With “GGGCGGAAGTGGGTTCTAACCTGTTGCGGCT [GGGCGGACTCC_LTGcore_AG_RTGcore_AG] (site GGGCGGACTCC) (LTG core: AG, RTG core: AG)” the “recombinant barcode read abundance (log10)” value was 0.193. In the case of “CATATTAGGTGGGTTCTAACCTGTTGCCTAG [CATATTACTAG_LTGcore_GG_RTGcore_CT] (site CATATTACTAG) (LTG core: GG, RTG core: CT)”, the “recombinant barcode read abundance (log10)” value is reported as 0.182. In the case of “CGAGCCCCTTGGGTTCTAACCTGTTGCTGCA [CGAGCCCCTCA_LTGcore_CT_RTGcore_TG] (site CGAGCCCCTCA) (LTG core: CT, RTG core: TG)”, the “recombinant barcode read abundance (log10)” value is reported as 0.0283. For “AAACATGCTTGGGTTCTAACCTGTTGCCTTT [AAACATGCTAG_LTGcore_CT_RTGcore_AA] (site AAACATGCTAG) (LTG core: CT, RTG core: AA)”, the “recombinant barcode read abundance (log10)” value was 0.865. With “TCTACCCTATGGGTTCTAACCTGTTGCTGAG [TCTACCCCTCA_LTGcore_TA_RTGcore_CT] (site TCTACCCCTCA) (LTG core: TA, RTG core: CT)” the “recombinant barcode read abundance (log10)” value was 0.0453. With “TGTATTCTTTGGGTTCTAACCTGTTGCCTAA [TGTATTCCTAG_LTGcore_TT_RTGcore_TT] (site TGTATTCCTAG) (LTG core: TT, RTG core: TT)” the “recombinant barcode read abundance (log10)” value was 0.0888. For “CGCGCCCACTGGGTTCTAACCTGTTGCGGAG [CGCGCCCCTCC_LTGcore_AC_RTGcore_CT] (site CGCGCCCCTCC) (LTG core: AC, RTG core: CT)”, the “recombinant barcode read abundance (log10)” value was 0.0345. In the case of “AAACACACATGGGTTCTAACCTGTTGCCTTG [AAACACACTAG_LTGcore_CA_RTGcore_CA] (site AAACACACTAG) (LTG core: CA, RTG core: CA)”, the “recombinant barcode read abundance (log10)” value is reported as 0.341. In the case of “GCGCGACTATGGGTTCTAACCTGTTGCTTTA [GCGCGACCTAA_LTGcore_TA_RTGcore_TA] (site GCGCGACCTAA) (LTG core: TA, RTG core: TA)”, the “recombinant barcode read abundance (log10)” value is reported as 0.118. With “AGGAGGTCTTGGGTTCTAACCTGTTGCCTTG [AGGAGGTCTAG_LTGcore_CT_RTGcore_CA] (site AGGAGGTCTAG) (LTG core: CT, RTG core: CA)” the “recombinant barcode read abundance (log10)” value was 0.336. For “CATATTAGCTGGGTTCTAACCTGTTGCCTAG [CATATTACTAG_LTGcore_GC_RTGcore_CT] (site CATATTACTAG) (LTG core: GC, RTG core: CT)”, the “recombinant barcode read abundance (log10)” value was 0.73. For “AGGAGGTGTTGGGTTCTAACCTGTTGCCTAC [AGGAGGTCTAG_LTGcore_GT_RTGcore_GT] (site AGGAGGTCTAG) (LTG core: GT, RTG core: GT)”, the “recombinant barcode read abundance (log10)” value was 0.0506. In the case of “CGAGCCCCGTGGGTTCTAACCTGTTGCTGAG [CGAGCCCCTCA_LTGcore_CG_RTGcore_CT] (site CGAGCCCCTCA) (LTG core: CG, RTG core: CT)”, the “recombinant barcode read abundance (log10)” value is reported as 0.587. In the case of “ACGGGACCTTGGGTTCTAACCTGTTGCAGCA [ACGGGACCTCT_LTGcore_CT_RTGcore_TG] (site ACGGGACCTCT) (LTG core: CT, RTG core: TG)”, the “recombinant barcode read abundance (log10)” value is reported as 0.0129. In the case of “GGGCGGAAGTGGGTTCTAACCTGTTGCGGAG [GGGCGGACTCC_LTGcore_AG_RTGcore_CT] (site GGGCGGACTCC) (LTG core: AG, RTG core: CT)”, the “recombinant barcode read abundance (log10)” value is reported as 0.0524. For “TGATACCGTTGGGTTCTAACCTGTTGCGTAC [TGATACCCTAC_LTGcore_GT_RTGcore_GT] (site TGATACCCTAC) (LTG core: GT, RTG core: GT)”, the “recombinant barcode read abundance (log10)” value was 0.0235. In the case of “CGCGCCCCCTGGGTTCTAACCTGTTGCGGAG [CGCGCCCCTCC_LTGcore_CC_RTGcore_CT] (site CGCGCCCCTCC) (LTG core: CC, RTG core: CT)”, the “recombinant barcode read abundance (log10)” value is reported as 0.158. In the case of “AGGCGGTATTGGGTTCTAACCTGTTGCTTAG [AGGCGGTCTAA_LTGcore_AT_RTGcore_CT] (site AGGCGGTCTAA) (LTG core: AT, RTG core: CT)”, the “recombinant barcode read abundance (log10)” value is reported as 0.127. In the case of “TGTATTCGGTGGGTTCTAACCTGTTGCCTAG [TGTATTCCTAG_LTGcore_GG_RTGcore_CT] (site TGTATTCCTAG) (LTG core: GG, RTG core: CT)”, the “recombinant barcode read abundance (log10)” value is reported as 0.0184. With “GGTGCCCCTTGGGTTCTAACCTGTTGCCGTT [GGTGCCCCTCG_LTGcore_CT_RTGcore_AA] (site GGTGCCCCTCG) (LTG core: CT, RTG core: AA)” the “recombinant barcode read abundance (log10)” value was 0.0623. For “GCGGGACAATGGGTTCTAACCTGTTGCCTAG [GCGGGACCTAG_LTGcore_AA_RTGcore_CT] (site GCGGGACCTAG) (LTG core: AA, RTG core: CT)”, the “recombinant barcode read abundance (log10)” value was 0.227. In the case of “GGACACCCCTGGGTTCTAACCTGTTGCCTGG [GGACACCCTAG_LTGcore_CC_RTGcore_CC] (site GGACACCCTAG) (LTG core: CC, RTG core: CC)”, the “recombinant barcode read abundance (log10)” value is reported as 0.128. With “TGTATTCTATGGGTTCTAACCTGTTGCCTAG [TGTATTCCTAG_LTGcore_TA_RTGcore_CT] (site TGTATTCCTAG) (LTG core: TA, RTG core: CT)” the “recombinant barcode read abundance (log10)” value was 0.0251. For “GAGGCCTCCTGGGTTCTAACCTGTTGCCAAG [GAGGCCTCTTG_LTGcore_CC_RTGcore_CT] (site GAGGCCTCTTG) (LTG core: CC, RTG core: CT)”, the “recombinant barcode read abundance (log10)” value was 0.273. In the case of “AAACAGTACTGGGTTCTAACCTGTTGCCTAG [AAACAGTCTAG_LTGcore_AC_RTGcore_CT] (site AAACAGTCTAG) (LTG core: AC, RTG core: CT)”, the “recombinant barcode read abundance (log10)” value is reported as 0.0247. In the case of “AAACAGTTGTGGGTTCTAACCTGTTGCCTCA [AAACAGTCTAG_LTGcore_TG_RTGcore_TG] (site AAACAGTCTAG) (LTG core: TG, RTG core: TG)”, the “recombinant barcode read abundance (log10)” value is reported as 0.0424. For “GGGCGGAGGTGGGTTCTAACCTGTTGCGGCC [GGGCGGACTCC_LTGcore_GG_RTGcore_GG] (site GGGCGGACTCC) (LTG core: GG, RTG core: GG)”, the “recombinant barcode read abundance (log10)” value was 0.502.
